{
  "source": "patent US20250228954A1",
  "about": "“Designing Antisense Oligonucleotide Delivery Peptides by Interpretable Machine Learning” (Sarepta Therapeutics, Inc., priority 2020, published 2025)",
  "key": {"HeLa 654 cells": {"test_system": "HeLa 654 cells", "experiment": "HeLa-654 eGFP assay (corrective splicing / exon skipping by PMO IVS2-654)", "type": "cell-based, human", "experimental": "With the 36 constructs synthesized, the ability to modulate PMO activity using the modified HeLa cell assay was tested. The HeLa-654 cells were stably transfected to express a nonfluorescent eGFP protein. The eGFP gene is interrupted by a mutant intron from the human β-globin gene (IVS2-654). The insertion alters pre-mRNA splicing to cause retention of a fragment in the mature mRNA that results in a nonfluorescent protein. PMO IVS2-654 base-pairs with the B-globin insertion, modifies mRNA splicing, and thereby leads to expression of fluorescent eGFP.\nFor treatment, the crude reaction mixture was diluted to 5 μM in media. The concentration of the modular construct was calculated based on the original concentration of the module 1-2 conjugate mixed in the reaction. Using media containing 10% fetal bovine serum (FBS), the cells were treated with each construct for 22 hours, after which the cellular fluorescence was measured by flow cytometry.\nFrom the lists of hundreds of predicted peptide sequences, twenty candidates were selected that varied in length, charge, and predicted activity to synthesize and test. Just as with the PMO-peptide library, the PMO-Mach constructs were first tested for PMO delivery in the HeLa 654 assay at 5 μM in complete media for 22 hours and analyzed by flow cytometry (FIG. 14). Experiments were conducted using three technical triplicates and two or three biological replicates.\nHeLa 654 cells were maintained in MEM supplemented with 10% (v/v) fetal bovine serum (FBS) and 1% (v/v) penicillin-streptomycin at 37° C. and 5% CO2. Eighteen hours prior to treatment, the cells were plated at a density of 5,000 cells per well in a 96-well plate in MEM supplemented with 10% FBS and 1% penicillin-streptomycin. The day of the experiment, the 384 well plate containing the crude reaction mixtures in DMSO was diluted to 100 μM by the addition of 16.8 μL of PBS to the 3.2 μL reaction mixture. Then, each construct was diluted to 5 μM in MEM supplemented with 10% FBS and 1% penicillin-streptomycin. Cells were incubated with each conjugate at a concentration of 5 μM for 22 hours at 37° C. and 5% CO2. Next, the treatment media was aspirated the cells were incubated with Trypsin-EDTA 0.25% for 15 min at 37° C. and 5% CO2, washed 1× with PBS, and resuspended in PBS with 2% FBS and 2 μg/mL propidium iodide. Flow cytometry analysis was carried out on a BD LSRII flow cytometer. Gates were applied to the data to ensure that cells that were highly positive for propidium iodide or had forward/side scatter readings that were sufficiently different from the main cell population were excluded. Each sample was capped at 5,000 gated events.\nAnalysis was conducted using Graphpad Prism 7. For each sample, the mean fluorescence intensity and the number of gated cells was measured (FIGS. 8 and 9) and the intensity multiplied by the cell number was calculated (FIG. 7)."}, "EGFP-654 mice": {"test_system": "EGFP-654 mice", "experiment": "EGFP protein level in tissues of EGFP-654 mice after single i.v. injection", "type": "in vivo, mouse", "parameters": "unit not given here", "conditions": "7 days", "description": "The mice used in the study contain a similar transgene as the HeLa654 cells from Example 4. This mouse model ubiquitously expresses EGFP-654 transgene throughout the body under chicken β-actin promoter. A mutated nucleotide 654 at intron 2 of human β-globin gene is contained in the EGFP-654 sequence which interrupts EGFP-654 coding sequence and prevents proper translation of EGFP protein. […] In this study, 6- to 8-week-old male EGFP-654 mice bred at Charles River Laboratory were used. These mice were group housed with ad libitum access to food and water.\n[…] Seven days after the injection, the mice were euthanized for serum and tissue sample collection. Quadriceps, diaphragm, heart were rapidly dissected, snap-frozen in liquid nitrogen and stored at −80° C. until analysis.\n20-25 mg of mouse tissue was homogenized in RIPA buffer (Thermo Fisher, Cat #89900) with protease inhibitor cocktail (Roche, 04693124001) using a Fast Prep 24-5G instrument (MP Biomedical). Homogenates were centrifuged at 12,000 g for 10 min at 4° C. The resultant supernatant lysates were quantified by Pierce BCA Protein Assay Kit (Thermo Fisher, Cat #23225) and saved for EGFP expression measurement. Specifically, 80 μg of lysates were aliquoted in each well in a black-wall clear-bottom 96-well microplate (Corning). EGFP fluorescent intensity of each sample was measured in duplicates using a SpectraMAx i3x microplate reader (Molecular devices) by default setting. The average EGFP fluorescent intensity of each sample was then plotted against a standard curve constructed by recombinant EGFP protein (Origen, Cat #TP790050) to quantify EGFP protein level per μg protein lysate (See FIGS. 24D-F)."}, "[1]": {"experiment": "Serum kidney injury markers in EGFP-654 mice", "type": "in vivo, mouse", "conditions": "after seven days", "experimental": "After 3-days of acclimation, mice were randomized into groups to receive a single i.v. tail vein injection of either saline or PMO-P7 at the indicated doses; 5, 10 and 30 mg/kg. Seven days after the injection, the mice were euthanized for serum and tissue sample collection. Quadriceps, diaphragm, heart were rapidly dissected, snap-frozen in liquid nitrogen and stored at −80° C. until analysis.\nSerum from all groups were collected 7-days post-injection and tested for kidney injury markers using a Vet Axcel Clinical Chemistry System (Alfa Wassermann Diagnostic Technologies, LLC). Specifically, serum BUN, creatinine, and cystatin C levels were measured using ACE® Creatinine Reagent (Alfa Wassermann, Cat #SA1012), ACER Blood Urea Nitrogen Reagent (Alfa Wassermann, Cat #SA2024) and Diazyme Cystatin C immunoassay (Diazyme Laboratories, Cat #DX133C—K), […], per manufacturer's recommendation (See, FIGS. 24A-C)."}, "[2]": {"experiment": "Chromogenic LAL endotoxin assay", "conditions": "lot used for animal studies, acetate salt, 0.5 mg in 1 mL PBS", "experimental": "The amount of endotoxin in PMO-P7 was measured. A chromogenic LAL (Limulus Amebocyte Lysate) assay for the detection and quantification of bacterial endotoxins was used. LAL is an extract of blood cells (amoebocytes) from the Atlantic horseshoe crab. This assay is based on the reaction of LAL with bacterial endotoxin lipopolysaccharide (LPS), which is a membrane component of gram-negative bacteria. In this method the LAL reagent is mixed with a chromogenic reagent (a peptide connected to p-nitroaniline, a yellow colorant) to produce a synthetic chromogenic substrate. The sample was added to this chromogenic substrate prior incubation. The presence of endotoxins in the sample produces a series of enzymatic reactions in the LAL reagent resulting in the breaking of the peptide bonds releasing p-nitroaniline molecules and therefore producing a yellow color. The concentration of endotoxin is quantitated by measuring the absorbance at 405-410 nm. Using the lot of PMO-P7 for animal studies, PMO-P7 solution was prepared using 0.5 mg of PMO-P^7 as acetate salt dissolved in 1 mL of PBS (1X). […] The reader mixed the sample with the LAL (Limulus Amebocyte Lysate) reagent. […] After mixing, the optical density of the wells was measured and analyzed against an internal archived standard curve. The reading was 0.0471 EU/mg (EU: endotoxin units). […]"}},
  "data": [
    {"molecule": "Cc1cn([C@H]2CN(P(=O)(OC[C@@H]3CN(P(=O)(OC[C@@H]4CN(P(=O)(OC[C@@H]5CN(P(=O)(OC[C@@H]6CN(P(=O)(OC[C@@H]7CN(P(=O)(OC[C@@H]8CN(P(=O)(OC[C@@H]9CN(P(=O)(OC[C@@H]%10CN(C(=O)CCCCC(=O)N%11Cc%12ccccc%12-c%12nnn(CCCCC(=O)N[C@@H](CCCCN)C(=O)N[C@@H](CCCCN)C(=O)N[C@@H](CCCCN)C(=O)N[C@@H](CCCCN)C(=O)N[C@@H](CCCCN)C(=O)N[C@@H](CCC(N)=O)C(=O)NCCC(=O)N[C@@H](CCCCN)C(=O)N[C@@H](CCCCN)C(=O)N[C@@H](CCCCN)C(=O)N[C@@H](Cc%13c[nH]cn%13)C(=O)N[C@@H](CCCNC(=N)N)C(=O)N[C@@H](Cc%13c[nH]c%14ccccc%13%14)C(=O)N%13CCC[C@H]%13C(=O)N[C@@H](CCCCN)C(=O)NCCCCCC(=O)NCCCCCC(=O)N[C@@H](CS)C(N)=O)c%12-c%12ccccc%12%11)C[C@H](n%11cnc%12c(=O)[nH]c(N)nc%12%11)O%10)N(C)C)C[C@H](n%10cnc%11c(N)ncnc%11%10)O9)N(C)C)C[C@H](n9ccc(N)nc9=O)O8)N(C)C)C[C@H](n8ccc(N)nc8=O)O7)N(C)C)C[C@H](n7ccc(N)nc7=O)O6)N(C)C)C[C@H](n6cnc7c(N)ncnc76)O5)N(C)C)C[C@H](n5cnc6c(N)ncnc65)O4)N(C)C)C[C@H](n4cc(C)c(=O)[nH]c4=O)O3)N(C)C)C[C@@H](COP(=O)(N(C)C)N3C[C@@H](COP(=O)(N(C)C)N4C[C@@H](COP(=O)(N(C)C)N5C[C@@H](COP(=O)(N(C)C)N6C[C@@H](COP(=O)(N(C)C)N7C[C@@H](COP(=O)(N(C)C)N8C[C@@H](COP(=O)(N(C)C)N9C[C@@H](COP(=O)(N(C)C)N%10C[C@@H](COP(=O)(N(C)C)N%11C[C@@H](COP(=O)(N(C)C)N%12CCN(C(=O)OCCOCCOCCO)CC%12)O[C@@H](n%12cnc%13c(=O)[nH]c(N)nc%13%12)C%11)O[C@@H](n%11ccc(N)nc%11=O)C%10)O[C@@H](n%10cc(C)c(=O)[nH]c%10=O)C9)O[C@@H](n9cnc%10c(N)ncnc%109)C8)O[C@@H](n8cc(C)c(=O)[nH]c8=O)C7)O[C@@H](n7cc(C)c(=O)[nH]c7=O)C6)O[C@@H](n6cnc7c(N)ncnc76)C5)O[C@@H](n5ccc(N)nc5=O)C4)O[C@@H](n4ccc(N)nc4=O)C3)O2)c(=O)[nH]c1=O", "note": "(some centres unmarked) [P7]", "values": [
      {"measurement": "fold increase in activity with respect to unconjugated PMO (eGFP assay)", "setting": "HeLa 654 cells; 5 μM", "result": 14, "unit": "fold"},
      {"measurement": "PMO delivery / activity, result in words", "setting": "HeLa 654 cells; 5 μM, 22 h", "result": "superior activity"},
      {"measurement": "fold increase at maximal effective concentration with respect to unconjugated PMO", "setting": "HeLa 654 cells; dose-response between 0.1 and 100 μM", "result": 45, "unit": "fold"},
      {"measurement": "FOLD OVER PMO", "setting": "HeLa 654 cells; eGFP fluorescence of PMO-peptide conjugate relative to unconjugated PMO, 5 μM, 22 h", "result": 17.7},
      {"measurement": "GFP protein in the Diaphragm", "setting": "EGFP-654 mice; 30 mg/kg", "result": 1100},
      {"measurement": "GFP protein in the Heart", "setting": "EGFP-654 mice; 30 mg/kg", "result": 2000},
      {"measurement": "GFP protein in the Quadriceps", "setting": "EGFP-654 mice; 30 mg/kg", "result": 1300},
      {"measurement": "GFP protein in the Diaphragm", "setting": "EGFP-654 mice; 60 mg/kg", "result": 2500},
      {"measurement": "GFP protein in the Heart", "setting": "EGFP-654 mice; 60 mg/kg", "result": 2200},
      {"measurement": "GFP protein in the Quadriceps", "setting": "EGFP-654 mice; 60 mg/kg", "result": 4000},
      {"measurement": "BUN (blood urea nitrogen) levels", "setting": "[1]", "result": "no significant changes"},
      {"measurement": "creatinine levels", "setting": "[1]", "result": "no significant changes"},
      {"measurement": "cystatin C levels", "setting": "[1]", "result": "no significant changes"},
      {"measurement": "endotoxin", "setting": "[2]", "result": 0.0471, "unit": "EU/mg"}
    ]}
  ]
}
